Measured values reported in US4414219A, “Antidepressant (α-phenyl-2-tolyl)azacycloalkanols and derivatives thereof” (American Hoechst Corporation, priority 1980, dated 1983).
Where a name gives a salt, the structure may show the parent alone. Read-outs that look alike come from different tables or passages of the source.

How the values were obtained:
Assay type in all cases: in vivo
toxicity of amphetamine = experiment: Amphetamine Aggregation Toxicity Reversal Assay (tranquilizer); conditions: 20 mg/kg oral; against 15 mg/kg intraperitoneal amphetamine sulfate; aggregated mice, survival up to 3 hours
Excerpt: Compounds of the invention are still further useful as tranquilizers due to their ability to reverse toxicity of amphetamine as measured in the Amphetamine Aggregation Toxicity Reversal Assay [Chance, M. R. A., J. Pharmacol. Exper. Therap. 87, pp. 214-219 (1946) and Proctor, C. D., Putts, J. T., Lundy, R. O., and Greenfield, E. J., Arch. Int. Pharmacodynam. 163, (1), pp. 79-86 (1966)]. In our assay "aggregated mice" mean 5 mice/group placed in such a manner as to yield 20 cm^2 of floor space per mouse. Animals are aggregated immediately after injection with amphetamine sulfate and then checked for survival up to 3 hours. For example, under these conditions an oral dosage of 20 mg/kg of body weight of 1-[3-(4-fluorobenzoyl)propyl]-4-(α-phenyl-2-tolyl)piperidine effects a 60% protection against the intraperitoneal dose of 15 mg/kg of amphetamine sulfate.

[1] = test system: supra maximal electro shock (SES); experiment: protection from supra maximal electro shock (SES), anticonvulsant
Description: Compounds of the present invention are further useful as anticonvulsant agents for mammals, as determined by the method of Woodbury, L. A. and Davenport, V. D., in Arch, Int. Pharmacodynam, Vol. 92, (1952) at pages 97-107. For example, the intraperitoneal dose of 17.6 mg/kg of body weight of 1-methyl-4-[-(4,fluorophenyl)-2-tolyl]-1,2,3,6-tetrahydropyridine hydrobromide produces an 83% protection from the effect of supra maximal electro shock (SES). Intraperitoneal doses of other representative compounds of the invention and their ability to protect from the effect of SES is shown below in Table IV.

[2] = test system: tetrabenazine-induced ptosis; experiment: inhibition of tetrabenazine-induced ptosis in mice (antidepressant assay); conditions: Mus musculus, ip, read-out: ED50 (50% inhibition from the ptosis of tetrabenazine-induced depression)
Excerpt: Thus, for instance, the intraperitoneal dosages at which the following compounds (ED50) effect a 50% inhibition from the ptosis of tetrabenazine-induced depression in mice are:
It is to be noted and stressed at this point that the substitution of a benzyl in the 2- or ortho position of the phenyl ring, in the compounds of the invention, is critical to biological especially antidepressant, activity. Where the benzyl is substituted in the 3- or meta position or the 4- or para position, the corresponding compound is relatively ineffective as compared to the 2-substituted compounds of the invention. In this regard, reference is made to the following Table II which illustrates such criticality in the form of intraperitoneal dosages at which a series (A. B. and C.) of 2-, 3- and 4-substituted compounds effect a 50% inhibition from the ptosis of tetrabenazine-induced depression in mice: […]

[3] = test system: 2-phenyl-1,4-quinone induced writhing; experiment: 2-phenyl-1,4-quinone induced writhing assay in mice (analgesia); conditions: for inhibition of writhing: 60 mg/kg p.o., comparison
Description: Compounds of the invention are also useful as analgesic agents due to their ability to alleviate pain in mammals. […] Exptl. Biol. Med., 95, 729 (1957)]. Thus, for example, a 50% inhibition in writhing is effected by the oral administration of 28.4 mg/kg of body weight of 4-acetoxy-1-methyl-4-(α-phenyl)-2-tolyl)piperidine hydrochloride. Other representative compounds of the invention and their respective ability to inhibit said writhing is shown below in Table III.

[4] = test system: tetrabenazine-induced ptosis; experiment: inhibition of tetrabenazine-induced ptosis in mice (antidepressant assay); conditions: 25 mg/kg intraperitoneal
[5] = intraperitoneal, mice, Table II (2-, 3- and 4-substituted series A, B, C)

Structure (SMILES): O=C(CCCN1CCC(c2ccccc2Cc2ccccc2)CC1)c1ccc(F)cc1 [1-[3-(4-fluorobenzoyl)propyl]-4-(α-phenyl-2-tolyl)piperidine]
- protection against amphetamine sulfate toxicity (toxicity of amphetamine): 60%

Structure (SMILES): Cl.OC1(c2ccccc2Cc2ccccc2)CCN(Cc2ccccc2)C1 (stereo not drawn) [1-benzyl-3-(α-phenyl-2-tolyl)-3-pyrrolidinol hydrochloride]
- % SES Protection ([1]; 50 mg/kg intraperitoneal): 83%

Structure (SMILES): ON1CCC(c2ccccc2Cc2ccccc2)CC1 [1-hydroxy-4-(α-phenyl-2-tolyl)piperidine]
- ED50 ([2]; intraperitoneal, mice, Table I): 3 mg/kg

Structure (SMILES): CN1CC=C(c2ccccc2Cc2ccccc2)CC1 [1-methyl-4-(α-phenyl-2-tolyl)-1,2,3,6-tetrahydropyridine]
- ED50 [2]: 8.8 mg/kg

Structure (SMILES): CN1CCC(O)(c2ccccc2Cc2ccccc2)CC1 [1-methyl-4-(α-phenyl-2-tolyl)-4-piperidinol]
- ED50 [2]: 8 mg/kg
- % SES Protection ([1]; 36 mg/kg intraperitoneal): 50%
- % Inhibition in Writhing ([3]; 50.0 mg/kg po, mice): 41%

Structure (SMILES): CCC(=O)OC1(c2ccccc2Cc2ccccc2)CCN(C)CC1.Cl [1-methyl-4-(α-phenyl-2-tolyl)-4-propionyloxypiperidine hydrochloride]
- % SES Protection ([1]; 50 mg/kg intraperitoneal): 50%
- % Inhibition in Writhing ([3]; 8.9 mg/kg sc, mice): 50%

Structure (SMILES): CN1CCC(c2ccccc2Cc2ccccc2)CC1.Cl [1-methyl-4-(α-phenyl-2-tolyl)piperidine hydrochloride]
- ED50 [2, 5]: 2.5 mg/kg
- % SES Protection ([1]; 50 mg/kg intraperitoneal): 83%
- % Inhibition in Writhing ([3]; 61.7 mg/kg po, mice): 50%

Structure (SMILES): CN1CC=C(c2cccc(Cc3ccccc3)c2)CC1 [1-methyl-4-(α-phenyl-3-tolyl)-1,2,3,6-tetrahydropyridine, reference compound]
- ED50 [2]: > 50 mg/kg

Structure (SMILES): CN1CCC(c2cccc(Cc3ccccc3)c2)CC1.O=C(O)C(=O)O [1-methyl-4-(α-phenyl-3-tolyl)piperidine oxalate, reference compound]
- ED50 [2, 5]: > 20 mg/kg

Structure (SMILES): CN1CC=C(c2ccc(Cc3ccccc3)cc2)CC1 [1-methyl-4-(α-phenyl-4-tolyl)-1,2,3,6-tetrahydropyridine, reference compound]
- ED50 [2]: > 50 mg/kg

Structure (SMILES): CN1CCC(c2ccc(Cc3ccccc3)cc2)CC1.O=C(O)C(=O)O [1-methyl-4-(α-phenyl-4-tolyl)piperidine oxalate, reference compound]
- ED50 [2, 5]: > 20 mg/kg

Structure (SMILES): CN1CCC(O)(c2ccccc2Cc2ccc(F)cc2)CC1 [1-methyl-4-[α-(4-fluorophenyl)-2-tolyl]-4-piperidinol]
- ED50 [2]: 8.2 mg/kg
- % SES Protection ([1]; 23.3 mg/kg intraperitoneal): 50%

Structure (SMILES): Br.COc1ccc(Cc2ccccc2C2=CCN(C)CC2)cc1 [1-methyl-4-[α-(4-methoxyphenyl)-2-tolyl]-1,2,3,6-tetrahydropyridine hydrobromide]
- % SES Protection ([1]; 25.6 mg/kg intraperitoneal): 50%

Structure (SMILES): Br.c1ccc(CCN2CCC(c3ccccc3Cc3ccccc3)CC2)cc1 [1-phenethyl-4-(α-phenyl-2-tolyl)piperidine hydrobromide]
- % SES Protection ([1]; 37.5 mg/kg intraperitoneal): 50%

Structure (SMILES): C1=C(c2ccccc2Cc2ccccc2)CCNC1 [4-(α-phenyl-2-tolyl)-1,2,3,6-tetrahydropyridine]
- ED50 [2]: 2.1 mg/kg
- % Inhibition in Writhing ([3]; 7.8 mg/kg sc, mice): 50%

Structure (SMILES): Cl.OC1(c2ccccc2Cc2ccccc2)CCNCC1 [4-(α-phenyl-2-tolyl)-4-piperidinol hydrochloride]
- ED50 ([2]; intraperitoneal, mice, Table I): 5.4 mg/kg

Structure (SMILES): Cl.c1ccc(Cc2ccccc2C2CCNCC2)cc1 [4-(α-phenyl-2-tolyl)piperidine hydrochloride]
- ED50 [2, 5]: 1.7 mg/kg

Structure (SMILES): Cl.c1ccc(Cc2cccc(C3CCNCC3)c2)cc1 [4-(α-phenyl-3-tolyl)piperidine hydrochloride, reference compound]
- ED50 [2, 5]: > 20 mg/kg

Structure (SMILES): Cl.c1ccc(Cc2ccc(C3CCNCC3)cc2)cc1 [4-(α-phenyl-4-tolyl)piperidine hydrochloride, reference compound]
- ED50 [2, 5]: > 20 mg/kg

Structure (SMILES): Br.CN1CC=C(c2ccccc2Cc2ccc(F)cc2)CC1 [4-[α-(4-fluorophenyl)-2-tolyl]-1-methyl-1,2,3,6-tetrahydropyridine hydrobromide]
- ED50 [2]: 8 mg/kg
- protection from the effect of supra maximal electro shock (SES) ([1]; 17.6 mg/kg intraperitoneal): 83%

Structure (SMILES): CC(=O)OC1(c2ccccc2Cc2ccccc2)CCN(C)CC1.Cl [4-acetoxy-1-methyl-4-(α-phenyl-2-tolyl)piperidine hydrochloride]
- inhibition from the ptosis of tetrabenazine-induced depression [4]: 40%
- inhibition in writhing ([3]; 28.4 mg/kg oral, mice): 50%

Structure (SMILES): CN1CCC(OC(=O)c2ccccc2)(c2ccccc2Cc2ccccc2)CC1.Cl [4-benzoyloxy-1-methyl-4-(α-phenyl-2-tolyl)piperidine hydrochloride]
- % Inhibition in Writhing ([3]; 12.8 mg/kg sc, mice): 50%

Structure (SMILES): CC(=O)Oc1ccccc1C(=O)O [aspirin, reference compound]
- inhibition of writhing [3]: 34%

Structure (SMILES): CCC(=O)O[C@](Cc1ccccc1)(c1ccccc1)[C@H](C)CN(C)C [propoxyphene hydrochloride, reference compound]
- inhibition of writhing [3]: 50%
